From US5574026A, “Methods for inhibiting angiogenesis proliferation of endothelial or tumor cells and tumor growth” (American Cyanamid Company, priority 1994, dated 1996)
“Also recorded” adds a separate entry of the source.

How the values were obtained:
[1] = system: Adult Bovine Aortic Endothelial (ABAE) cell line; test: Antiproliferative activity in Adult Bovine Aortic Endothelial (ABAE) cell line, PROTOCOL 3 (4 days, cell count); type: cell-based
Description: The antiproliferative activity of the compounds of Formula I in an Adult Bovine Aortic Endothelial (ABAE) cell line and in Human Tumor cells lines is evaluated in three similar assays that measure growth inhibition. The assays are identified as follows:
PROTOCOLS 1, 2, and 3 are described in greater detail hereinbelow. In general, according to PROTOCOLS 1 and 2, the target ABAE and/or Human Tumor cells are exposed to the compounds of Formula I for 48 hours. PROTOCOL 3 exposes ABAE cells to the compounds for 4 days. A detailed description of the Protocols is as follows:
Antiproliferative Activity in Adult Bovine Aortic Endothelial (ABAE) Cell Line
ABAE cells are grown in DMEM media (Mediatech, Washington, D.C.) supplemented with 10% calf serum (Hyclone). ABAE cells are plated in 24-well dishes at 8,000 cells/well, followed by the addition of increasing concentrations of 7-halogen-9-[hydrogen or [(substituted glycyl)amido]]-6-demethyl-6-deoxytetracycline. After four days, the cells are detached and counted. […] The growth inhibition (I) as % of control is calculated as follows: [formula] wherein: Nc is the number of cells in untreated wells;
Nt is the number of cells in treated wells;
No is the number of plated cells.
IC50 of growth inhibition is determined from the sets of I values plotted by Kaleidograph software (Abelbeck Software).
Table 1 presents the results depicting the antiproliferative activity of the compounds of Formula I against an ABAE cell line, as evaluated by PROTOCOL 2 and PROTOCOL 3. The results are presented in terms of IC50 and are as follows.

[2] = system: angiogenesis; conditions: Brem et al; in words; cited from earlier work
[3] = system: tumor; conditions: Teicher et al; used in conjunction with cancer chemotherapy or radiation therapy; cited from earlier work

CN(C)c1ccc(O)c2c1C[C@H]1C[C@H]3[C@H](N(C)C)C(O)=C(C(N)=O)C(=O)[C@@]3(O)C(O)=C1C2=O [Minocycline, reference compound]
IC50 ([1]; Bos taurus, 96 h, ABAE cells, PROTOCOL 3, 4 days, read-out: IC50 PROTOCOL 3): ≥ 50 µg/mL | activity upon incubation with cells ([1]; FIG. 1, 4 day assay (Protocol 3), in words): losing its activity upon incubation with cells | inhibition of angiogenesis [2]: inhibits angiogenesis to an extent comparable to that of the combination therapy of heparin and cortisone; also recorded: useful as inhibitors of angiogenesis | number of metastases with chemotherapy or radiation therapy [3]: the number of metastases is reduced | tumor growth with chemotherapy or radiation therapy [3]: tumor growth is decreased
